In EP2385818B1, “DIOLS AS ANTIPERSPIRANT AGENTS” (Beiersdorf Aktiengesellschaft, priority 2009, dated 2010):

Tested on: schweißabgebenden Schweißdrüsen im Testareal
Assay: Sweat reduction on the forearm of volunteers, sweating induced at 75 °C, silicone imprint count of active sweat glands versus untreated area (following Keskin et al.)
Format: in vivo, Probanden
Conditions: for antitranspirant bzw. schweißhemmende Wirkung (Restschweißmenge im Vergleich zum unbehandelten Areal): forearm, after product application, result in words only; for AT-Wirkung, onset: measurable after the first application, no build-up by repeated application
Description: Die überraschende Antitranspirantwirksamkeit wurde in Studien zum AT-Wirkmechanismus der aromatischen Diole in wässrigen Systemen, unterschiedlichen Ölen und O/W-Emulsion untersucht (siehe Abbildung 1). In den Abbildungen ist die Restschweißmenge im Vergleich zum unbehandelten Areal nach Produktapplikation dargestellt. 100% Restschweißmenge entsprechen 0% Schweißreduktion. Die Schweißreduktion wurde in Anlehnung an M. Keskin et al. J. Invest. Dermatol. 1998; 110:591 gemessen. Bei den Messungen werden die Testsubstanzen auf dem Unterarm der Probanden angewendet. Die Probanden werden bei 75 °C zum Schwitzen angeregt; nach Beginn der Schweißproduktion wird mittels Silikonabdrucktechnik die Anzahl der schweißabgebenden Schweißdrüsen im Testareal ermittelt und gegen ein unbehandeltes Vergleichsareal abgeglichen.

SMILES	antitranspirant bzw. schweißhemmende Wirkung (Restschweißmenge im Vergleich zum unbehandelten Areal)	AT-Wirkung, onset	AT-Leistung (preparation with up to 50 % Gew. in water, compared with preparation with 10 Gew.% Aluminiumchlorohydrat (Abbildung 1))
CC(O)C(O)c1ccccc1 (centres unmarked)	schweißhemmende Wirkung		
CC(O)CCO (centres unmarked) [1,3-Butylenglykol]	antitranspirant bzw. schweißhemmende Wirkung	unmittelbare AT-Wirkung (Sofort-Effekt)	
OCCCO [1,3-Propylenglykol]	antitranspirant bzw. schweißhemmende Wirkung	unmittelbare AT-Wirkung (Sofort-Effekt)	gute AT-Leistung
CC(O)CC(C)O (centres unmarked) [2,4-Pentylenglykol]	antitranspirant bzw. schweißhemmende Wirkung	unmittelbare AT-Wirkung (Sofort-Effekt)	
CC(O)CCC(C)O (centres unmarked) [2,5 Hexandiol, 2,5-Hexandiol]	antitranspirant bzw. schweißhemmende Wirkung	unmittelbare AT-Wirkung (Sofort-Effekt)	
OCCC(O)c1ccccc1 (centres unmarked) [Phenyl-1,3-Propylenglykol]	schweißhemmende Wirkung		
